Measured values taken from patent US20240092745A1, “DRUGS AND COMPOSITIONS FOR THE TREATMENT OF OCULAR DISORDERS” (Graybug Vision, Inc., priority 2017, published 2024).
≈ marks a conversion by molar mass, not a printed value. Entries after “also recorded” stand apart in the source; their conditions may differ. Counter-ions that a name gives are not always drawn. Like-named read-outs stand apart in the source and are kept apart here.

Assays:
[1] = In vitro stability of prodrugs (degradation to parent, RP-HPLC); format: physicochemical; conditions: 37° C.; for degradation kinetics / hydrolysis to parent, in words: PBS (pH 7) with 10% DMSO, RP-HPLC
Procedure: Prodrugs of interest were dissolved in PBS (pH 7) containing 10% DMSO (v/v) at a concentration of 0.1 mg/mL. The samples were incubated at 37° C. or 50° C. to simulate physiological and accelerated degradation conditions, respectively. At various time points, 500 μL of the solution was collected, filtered through a 0.2 μm nylon syringe filter and analyzed by RP-HPLC.
Timolol-Dorzolamide bi-functional prodrugs were dissolved in a mixture of DMSO and PBS and incubated at 37° C. The solution was aliquoted and analyzed by HPLC at pre-determined time points. Timolol-Dorzolamide bi-functional prodrugs were stable for about 3 hours as evidenced by the significant reduction of prodrug peaks in HPLC after 2-3 hours (FIG. 30A and FIG. 30B). Timolol parent drug was detected as the bi-functional prodrug degraded, whereas Dorzolamide appeared in the form of prodrugs, i.e., Dorzolamide linked with 1-3 PLA units.

[2] = Determination of drug solubility in aqueous and organic solvent; format: physicochemical; conditions: for solubility: thermodynamic from solid;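 on all read-outs here: solid drug suspended at 50 mg/mL nominal in each solvent, vortexed and sonicated, then dissolved concentration in filtered supernatant quantified by HPLC against a calibration curve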
Procedure: For each test, approximately 5-10 mg was transferred to a 10 mL glass vial. Aqueous or organic solvent was added to each vial to achieve an overall concentration of 50 mg/mL. After vortexing aggressively for 2-3 minutes and sonicating in a bath sonicator for 5 minutes, undissolved drug was spun down at 1200 rpm for 5 minutes to generate a pellet. The supernatant was collected and filtered through a 0.2 μm nylon syringe filter into HPLC vials for drug content analysis. Drug concentration was determined by comparing against a standard calibration curve.

[3] = organic solvent or mixture, Table 3B, DMSO, read-out: Solubility DMSO
[4] = Table 3B, water, drug added to 50 mg/mL, read-out: Solubility Water
[5] = organic solvent or mixture, Table 3A, DMSO, read-out: Solubility DMSO
[6] = Table 3A, water, drug added to 50 mg/mL, read-out: Solubility Water
[7] = Table 3B, water, drug added to 50 mg/mL
[8] = organic solvent or mixture, Table 3A, DCM, read-out: Solubility DCM

Compound | solubility [2, 3] [mg/mL] | solubility [2, 4] [mg/mL] | also measured
CCN[C@H]1C[C@H](C)S(=O)(=O)c2sc(S(=O)(=O)NC(=O)[C@H](C)OC(=O)[C@H](C)OC(=O)[C@H](C)OC(=O)CCCC(=O)O[C@@H](CNC(C)(C)C)COc3nsnc3N3CCOCC3)cc21 [Compound 64-4, Timolol-O-glutarate-PLA(n=3)-Dorzolamide maleate salt] | – | – | time in which prodrug cleaves to afford the active moieties [1]: less than 5 hours
CC/C=C\C/C=C\C/C=C\C/C=C\C/C=C\C/C=C\CCC(=O)O[C@H](COc1nsnc1N1CCOCC1)CN(C(C)=O)C(C)(C)C [Compound 68-1, N-Acyl-Timolol-DHA] | > 100 | < 1 | –
CC(=O)N(C[C@@H](COc1nsnc1N1CCOCC1)OC(=O)[C@H](C)OC(=O)[C@H](C)O)C(C)(C)C [Compound 69-1] | > 100 | < 6.3 | –
CCCCC/C=C\C/C=C\CCCCCCCC(=O)O[C@@H](CNC(C)(C)C)COc1nsnc1N1CCOCC1.O=C(O)/C=C\C(=O)O [Compound 70-1, Timolol-O-linoleic acid maleate] | > 50 | < 0.01 | degradation kinetics / hydrolysis to parent, in words [1]: degraded steadily over the 4-day period, releasing parent Timolol in a linear rate; also recorded: steady generation of the parent Timolol
CC(C)(C)NC[C@@H](COc1nsnc1N1CCOCC1)OC(=O)CCC(=O)O[C@@H](CNC(C)(C)C)COc1nsnc1N1CCOCC1.O=C(O)/C=C\C(=O)O [Compound 76-4, Timolol-succinic acid-Timolol-maleate] | > 100 | > 6.25 | –
CC(C)(C)NC[C@@H](COc1nsnc1N1CCOCC1)OC(=O)CCCC(=O)O[C@@H](CNC(C)(C)C)COc1nsnc1N1CCOCC1.O=C(O)/C=C\C(=O)O [Compound 77-1, Timolol-glutaric acid-Timolol-maleate] | > 100 | < 1 | –
CC(C)(C)NC[C@@H](COc1nsnc1N1CCOCC1)OC(=O)/C=C/C(=O)O[C@@H](CNC(C)(C)C)COc1nsnc1N1CCOCC1.O=C(O)/C=C\C(=O)O.O=C(O)/C=C\C(=O)O [Compound 78-1, Timolol-fumurate-Timolol-maleate] | > 100 | < 1 | –
CC/C=C\C/C=C\C/C=C\C/C=C\C/C=C\C/C=C\CCC(=O)NS(=O)(=O)c1cc2c(s1)S(=O)(=O)[C@@H](C)C[C@@H]2NCC [Compound 80-3, (4S,6S)-4-Ethylamino-6-methyl-7,7-dioxo-4,5,6,7-tetrahydro-7lambda*6*-thieno[2,3-b]thiopyran-2-sulfonic acid ((4Z,7Z,10Z,13Z,16Z,19Z)-docosa-4,7,10,13,16,19-hexanoyl)-amide] | > 100 | < 1 | solubility ([2]; organic solvent or mixture, Table 3B, DCM, read-out: Solubility DCM): > 50 mg/mL
COc1cccc(CN(CCOC(=O)[C@H](C)OC(=O)[C@H](C)OC(=O)[C@H](C)OC(=O)[C@H](C)OC(C)=O)C(=O)Nc2ccc(-c3cn[nH]c3)cc2)c1 [Compound 88-3, SR5834-acetyl PLA(n=4)] | > 50 | – | –
CC/C=C\C/C=C\C/C=C\C/C=C\C/C=C\C/C=C\CCC(=O)O[C@@H](C)C(=O)O[C@@H](C)C(=O)O[C@H](COc1nsnc1N1CCOCC1)CN(C(C)=O)C(C)(C)C [Compound 102-1, N-acyl-Timolol-PLA (n=2)-DHA] | – | – | degradation kinetics / hydrolysis to parent, in words [1]: steady generation of intermediate degradants and slow hydrolysis to the parent compound; also recorded: steady generation of the intermediate N-acyl-Timolol-PLA (n=1)-DHA and slow hydrolysis to parent Timolol
CC(=O)O[C@@H](C)C(=O)O[C@@H](C)C(=O)O[C@@H](C)C(=O)O[C@@H](C)C(=O)O[C@@H](C)C(=O)O[C@@H](C)C(=O)O[C@@H](C)C(=O)O[C@@H](C)C(=O)N1CCN=C1Nc1ccc2nccnc2c1Br [Compound 109-1, Brimonidine-acetyl PLA(n=8)] | – | – | solubility [2, 5]: > 50 mg/mL; solubility [2, 6]: < 0.1 mg/mL
CC(=O)O[C@@H](C)C(=O)O[C@@H](C)C(=O)N1CCN(C(=O)[C@H](C)OC(=O)[C@H](C)OC(C)=O)C1=Nc1ccc2nccnc2c1Br [Compound 111-4, Brimonidine-bis-acetyl PLA(n=2)] | – | – | solubility [2, 5]: > 50 mg/mL; solubility [2, 6]: < 1 mg/mL
COc1cccc(CN(CCOC(=O)[C@H](C)OC(=O)[C@H](C)OC(=O)[C@H](C)OC(=O)[C@H](C)OC(C)=O)C(=O)Nc2ccc(-c3cnn(C(=O)[C@H](C)OC(=O)[C@H](C)OC(=O)[C@H](C)OC(=O)[C@H](C)OC(C)=O)c3)cc2)c1 [Compound 113-1, SR5834-bis-acetyl PLA(n=4)] | 50 (≈ 48.7 mM) | < 1 | –
CC(=O)O[C@@H](C)C(=O)O[C@@H](C)C(=O)N1CCN(C(C)=O)C1=Nc1ccc2nccnc2c1Br [Compound 114-4, Brimonidine-acetyl PLA(n=2)-N-Acetate] | – | – | solubility [2, 5]: 100 mg/mL (≈ 192 mM); solubility [2, 6]: 1 mg/mL (≈ 1.92 mM)
CC(=O)OC(C)C(=O)OC(C)C(=O)OC(C)C(=O)OC(C)C(=O)N1CCN(C(C)=O)C1=Nc1ccc2nccnc2c1Br (centres unmarked) [Compound 115-1, Brimonidine-acetyl PLA(n=4)-N-Acetate] | – | – | solubility [2, 5]: 100 mg/mL (≈ 150 mM); solubility [2, 6]: < 0.2 mg/mL
CC(=O)O[C@@H](C)C(=O)O[C@@H](C)C(=O)O[C@@H](C)C(=O)O[C@@H](C)C(=O)N1CCN(C(=O)[C@H](C)OC(=O)[C@H](C)OC(=O)[C@H](C)OC(=O)[C@H](C)OC(C)=O)C1=Nc1ccc2nccnc2c1Br [Compound 116-1, Brimonidine-bis-acetyl PLA(n=4)] | – | – | solubility [2, 5]: 100 mg/mL (≈ 105 mM)
CC(=O)OC(C)C(=O)OC(C)C(=O)OC(C)C(=O)OC(C)C(=O)O[C@H](COc1nsnc1N1CCOCC1)CN(C(=O)C(C)OC(=O)C(C)OC(C)=O)C(C)(C)C (some centres unmarked) [Compound 230, Timolol-bis-N-acetyl-PLA(n=2)-O-acetyl PLA(n=4)] | > 50 | < 0.007 | –
CCN[C@H]1C[C@H](C)S(=O)(=O)c2sc(S(N)(=O)=O)cc21 [Dorzolamide, reference compound] | – | – | Solubility DCM ([2]; Table 3B, DCM): <1.0 mg/mL; Solubility DMSO ([2]; Table 3B, DMSO): <1.0 mg/mL; Solubility Water [2, 7]: >50 mg/mL; solubility [2, 8]: < 1 mg/mL; solubility [2, 5]: < 1 mg/mL; solubility [2, 6]: > 50 mg/mL
CCN[C@H]1C[C@H](C)S(=O)(=O)c2sc(S(=O)(=O)NC(=O)[C@H](C)O)cc21 [Dorzolamide-PLA (n = 1), dorzolamide-PLA (n=1)] | – | – | Solubility DMSO ([2]; Table 3A, DMSO): <1.0 mg/mL; Solubility Water ([2]; Table 3A, water, drug added to 50 mg/mL): >50 mg/mL
CC(C)OC(=O)CCC/C=C\C[C@@H]1[C@@H](CC[C@@H](O)CCc2ccccc2)[C@H](O)C[C@@H]1O [Latanoprost, reference compound] | – | – | solubility [2, 8]: > 50 mg/mL; solubility [2, 5]: > 50 mg/mL; solubility [2, 6]: < 1 mg/mL
COc1cccc(CN(CCO)C(=O)Nc2ccc(-c3cn[nH]c3)cc2OCCN2CCCC2)c1 [RKI-H-1y, 1-(2-hydroxyethyl)-1-[(3-methoxyphenyl)methyl]-3-[4-(1H-pyrazol-4-yl)-2-[2-(pyrrolidin-1-yl)ethoxy]phenyl]urea, reference compound] | > 100 | < 1 | –
Brinzolamide (n = 1) | – | – | Solubility DCM ([2]; Table 3B, DCM): >50 mg/mL; Solubility DMSO ([2]; Table 3B, DMSO): >50 mg/mL; Solubility Water [2, 7]: >50 mg/mL
N-acyl-Timolol-PLA (n = 2)-DHA [N-Acyl-Timolol-PLA (n = 2) DHA] | – | – | Solubility DMSO ([2]; Table 3B, DMSO): >100 mg/mL; Solubility Water [2, 7]: <1.0 mg/mL
Timolol-Bis-Acetyl-PLA (n = 4) [Compound 119-1] | – | – | Solubility DMSO ([2]; Table 3B, DMSO): >50 mg/mL; Solubility Water [2, 7]: <0.00005 mg/mL

Continued, in another order:

solubility [2, 3] [mg/mL] | solubility [2, 4] [mg/mL] | Compound | also measured
> 100 | < 1 | CCCCCCCCCCCCCCCCCC(=O)O[C@@H](C)C(=O)O[C@H](COc1nsnc1N1CCOCC1)CN(C(C)=O)C(C)(C)C [Compound 65-1] | degradation kinetics / hydrolysis to parent, in words [1]: resistant to hydrolysis and failed to release the parent over the course of the study; also recorded: resistant to hydrolysis
> 50 | > 25 | CCCCC/C=C\C/C=C\CCCCCCCC(=O)O[C@@H](CNC(C)(C)C)COc1nsnc1N1CCOCC1.Cl [Compound 71-1, Timolol-O-Linoleic Acid-HCl] | –
> 100 | < 1 | CC(C)(C)NC[C@@H](COc1nsnc1N1CCOCC1)OC(=O)CCCCCCCCC(=O)O[C@@H](CNC(C)(C)C)COc1nsnc1N1CCOCC1.O=C(O)/C=C\C(=O)O [Compound 75-1, Timolol-Sebacic Acid-Timolol Maleate] | –
> 50 | < 0.006 | CC(=O)OC(C)C(=O)OC(C)C(=O)OC(C)C(=O)OC(C)C(=O)N(C[C@@H](COc1nsnc1N1CCOCC1)OC(=O)C(C)OC(=O)C(C)OC(C)=O)C(C)(C)C (some centres unmarked) [Compound 229, Timolol-bis-N-acetyl-PLA(n=4)-O-acetyl PLA(n=2)] | –
> 100 | < 1 | CCN(Cc1cccc(OC)c1)C(=O)Nc1ccc(-c2cn[nH]c2)cc1OCCN1CCCC1 [RKI-1y, 3-(4-(1H-pyrazol-4-yl)-2-(2-(pyrrolidin-1-yl)ethoxy)phenyl)-1-ethyl-1-(3-methoxybenzyl)urea, reference compound] | –
> 100 | < 1 | COc1cccc(CN(CCO)C(=O)Nc2ccc(-c3cn[nH]c3)cc2)c1 [SR5834, 1-(2-hydroxyethyl)-1-[(3-methoxyphenyl)methyl]-3-[4-(1H-pyrazol-4-yl)phenyl]urea, reference compound] | –
